Where two headings read alike, the source gives them in different places.
Key:
[1] = test system: primary fibroblasts (healthy controls and PA, MMA, BCKDK, PDH, VLCAD, LS, PC, GA, VLCFA, KSS, FXN, HD); experiment: Measurement of ROS (H2DCFDA) in primary fibroblasts; assay type: cell-based, human; details: Homo sapiens, procedure Example 812
Outline: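 Patient and healthy-control primary fibroblasts switched to supplemented DMEM 24 h before assay, then treated with compound (10 μM) plus H2DCFDA (22 μM) for 2 h (PA, MMA lines) or 24 h (other lines). Kinetic fluorescence at 492/527 nm over 60 min; only live cells analysed.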

[2] = test system: Very long-chain acyl-CoA dehydrogenase (VLCAD) primary fibroblasts GM17475; experiment: Total NAD+ + NADH and NAD+ (NAD/NADH-Glo), VLCAD fibroblasts GM17475; assay type: cell-based; details: Homo sapiens, Fibroblast, VLCAD GM17475 P10, assay condition A, 24h, read-out: Increase in Total NAD+ + NADH
Procedure: Primary adherent fibroblasts were cultured in minimum essential medium (MEM) (Gibco, 25030081) supplemented with 2 mM L-Glutamine (Gibco, 25030081), 15% fetal bovine serum (FBS) (Gibco, 26400044) and 1% penicillin/streptomycin (Gibco, 5140122) at 37° C. and 5% CO2. Cells were collected for either passaging or experiment at ˜70-80% confluence. Cells were obtained by trypsinization and seeded in cell culture microplates either white plate (Thermo Fisher Scientific, 152028) for luminescent measurement or black plate (Thermo Fisher Scientific, 165305) for fluorescent based read out for different assays listed below. Cells were obtained by trypsinization and […] were seeded and allowed to adhere for 16-18 hours to have confluency around 70-80% in the cell well with culture media. After 24 hours prior to measurements (37° C., 5% CO2) media was changed to Dulbecco's Modified Eagle Medium (DMEM, Agilent Seahorse cat #103575-100) with the appropriate supplements as stated below.
Primary fibroblasts assayed were Propionic Acidemia (PA) (GM03590 Coriell Institute for Medical Research, Tsi 6337 Trans-Hit Bio), Methylmalonic Acidemia (MMA) (Tsi 5224 Trans-Hit Bio), Subnormal activation of pyruvate dehydrogenase complex (PDH) (GM01503 Coriell Institute for Medical Research), Very long-chain acyl-CoA dehydrogenase (VLCAD) (GM17475), Leigh Syndrome (LS) (GM03672, GM13411 Coriell Institute for Medical Research), Pyruvate Carboxylase Deficiency (PC) (GM00444 Coriell Institute for Medical Research). 10 μM of Compounds were added for 2 hours in PA, MMA lines and for 24h for the other fibroblast lines.
Assay was performed according to manufacturer instructions (NAD/NADH-Glo Assay Promega, G9072). The NAD/NADH-Glo Assay is a bioluminescent assay for detecting total oxidized and reduced nicotinamide adenine dinucleotides (NAD+ and NADH, respectively) from which ratio of NAD/NADH can be calculated. Briefly, for every assay a 12-point standard curve was prepared ranging from 400 nM to 0.625 nM. Media was removed and replaced with 50 μl of PBS for both assays.
For individual NAD+ and NADH measurement, 50 μl of 1% DTAB (Sigma Cat #D5047) (cell lysis reagent) in 0.2N NaOH was added to the plate and a total 100 μl of lysate was split into two plates with 50 μl each. 25 μl of 0.4N HCl were added to the NAD+ plate and both NAD+ and NADH plate were heated at 60° C. for 15 minutes. The acid and heat treatment destroyed NADH allowing individual NAD+ measurement while heating in basic conditions destroys NAD+ allowed individual NADH measurements. The plates were allowed to come to room temperature for 10 minutes and Trizma base (Sigma, T1699) was added to the NAD+ plate to neutralize the acid and HCl Trizma hydrochloride (Sigma, T2694) was added to the NADH plate. The NADNADH glo reagent was prepared by adding: 625 μl of NAD cycling substrate, 125 μl of reductase, 125 μl of reductase substrate, 125 μl NAD cycling enzyme to total of the 25 ml of NAD GLO reagent. 1:1 ratio of total volume of reagent was added to the individual NAD+, NADH measurement (total 100 μl) and 50 μl for total NAD/NAH measurement. Luminescence was read between 30-60 minutes within the linear range.
A total dead cell count was performed as described in Example 817 and only alive cells were used for analysis.

[3] = test system: HepG2 cells; experiment: Mitochondrial membrane potential (MITO-ID MP detection Kit); assay type: cell-based; details: Homo sapiens, 168 h, 7 days; for inhibition at 50 µM: read-out: % decrease in Mitochondrial Membrane Potential; for activation at 10 µM: read-out: % increase in Mitochondrial Membrane Potential
Outline: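 Cells plated at 160000 cells/mL in DMEM with 10% FBS and 1% Pen-Strep, adhered overnight at 37° C., 5% CO2. Exposure to test compounds (50-10 μM) or 0.2% DMSO for 7 days without media change; membrane potential measured with MITO-ID MP detection kit per manufacturer.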

[4] = Fibroblast, NPC1 GM22879, Assay Condition C, read-out: Decreased ROS by at least 30%
[5] = Fibroblast, PDH GM01503, Assay Condition C, read-out: Decreased ROS by at least 10%
[6] = Fibroblast, BCKD GM00612, Assay Condition A, read-out: Decreased ROS by at least 10%
[7] = Fibroblast, BCKD GM00649, Assay Condition C, read-out: Decreased ROS by at least 30%
[8] = FXN GM04078, Assay Condition C, read-out: Decreased ROS by at least 10%
[9] = FXN GM04078, Assay Condition C, read-out: Decreased ROS by at least 30%
[10] = Fibroblast, VLCAD GM17475, Assay Condition C, read-out: Decreased ROS by at least 30%
[11] = Fibroblast, VLCAD GM17475, Assay Condition C, read-out: Decreased ROS by at least 10%

Compound | inhibition at 10 µM [1, 5] [%] | activation at 10 µM [2] [%] | inhibition at 10 µM [1, 8] [%] | inhibition at 10 µM [1, 9] [%] | other results
C[C@@H](O)CC(=O)CC(=O)SCCNC(=O)CCNC(=O)[C@H](O)C(C)(C)CO [Compound 42, (2R)-2,4-dihydroxy-N-[2-[(2-[[(5R)-5-hydroxy-3-oxohexanoyl]sulfanyl]ethyl)carbamoyl]ethyl]-3,3-dimethylbutanamide] | ≥ 10 | ≥ 10 | – | – | inhibition at 10 µM [1, 4]: ≥ 30%
CC(=O)SCCNC(=O)CCNC(=O)[C@H](O)C(C)(C)COC(=O)CCC(=O)O [Compound 1242, (R)-12-hydroxy-13,13-dimethyl-2,7,11,16-tetraoxo-15-oxa-3-thia-6,10-diazanonadecan-19-oic acid] | – | ≥ 10 | – | – | –
CC(C)(CO)[C@@H](O)C(=O)NCCC(=O)NCCSC(=O)CC(=O)CCC(=O)O [Compound 2, 6-[(2-[3-[(2R)-2,4-dihydroxy-3,3-dimethylbutanamido]propanamido]ethyl)sulfanyl]-4,6-dioxohexanoic acid] | – | ≥ 10 | ≥ 10 | ≥ 30 | inhibition at 10 µM [1, 6]: ≥ 10%; inhibition at 10 µM [1, 7]: ≥ 30%
CC(O)C(C(=O)SCCNC(=O)CCNC(=O)[C@H](O)C(C)(C)CO)C(C)O (stereo partly drawn) [Compound 1285, (2R)-2,4-dihydroxy-N-[2-[(2-[[3-hydroxy-2-(1-hydroxyethyl)butanoyl]sulfanyl]ethyl)carbamoyl]ethyl]-3,3-dimethylbutanamide] | – | ≥ 10 | – | – | inhibition at 10 µM [1, 6]: ≥ 10%; inhibition at 10 µM [1, 4]: ≥ 30%; inhibition at 50 µM [3]: > 30%
CCC(=O)CC(=O)SCCNC(=O)CCNC(=O)[C@H](O)C(C)(C)CO [Compound 382, (2R)-2,4-dihydroxy-3,3-dimethyl-N-[2-([2-[(3-oxopentanoyl)sulfanyl]ethyl]carbamoyl)ethyl]butanamide] | ≥ 10 | ≥ 10 | ≥ 10 | ≥ 30 | inhibition at 10 µM [1, 10]: ≥ 30%
CC(O)CC(O)CC(O)CC(=O)SCCNC(=O)CCNC(=O)[C@H](O)C(C)(C)CO (stereo partly shown) [Compound 401] | – | ≥ 10 | – | – | inhibition at 10 µM [1, 11]: ≥ 10%; inhibition at 10 µM [1, 10]: ≥ 30%; activation at 10 µM [3]: > 10%
CC(=O)OCC(C)(C)[C@@H](OC(C)=O)C(=O)NCCC(=O)NCCSC(C)=O [Compound 1264, (1R)-3-(acetyloxy)-1-[(2-[[2-(acetylsulfanyl)ethyl]carbamoyl]ethyl)carbamoyl]-2,2-dimethylpropyl acetate] | – | ≥ 10 | – | – | –
COC(=O)CC(C(C)=O)C(=O)SCCNC(=O)CCNC(=O)[C@H](O)C(C)(C)CO (stereo partly shown) [Compound 410] | – | ≥ 10 | ≥ 10 | ≥ 30 | inhibition at 10 µM [1, 7]: ≥ 30%; inhibition at 10 µM ([1]; Fibroblast, MMA Tsi 5224, Assay Condition A, read-out: Decreased ROS by at least 10%): ≥ 10%
C[C@@H](O)CC(=O)SCCNC(=O)CCNC(=O)[C@H](O)C(C)(C)CO [Compound 38, S-2-{3-[(R)-2,4-dihydroxy-3,3-dimethylbutyrylamino]propionylamino} ethyl (R)-3-hydroxybutanethioate] | ≥ 10 | ≥ 10 | ≥ 10 | ≥ 30 | inhibition at 10 µM ([1]; Fibroblast, PDH GM01503, Assay Condition C, read-out: Decreased ROS by at least 30%): ≥ 30%; inhibition at 50 µM [3]: > 30%
CC[C@@H](O)CC(=O)SCCNC(=O)CCNC(=O)[C@H](O)C(C)(C)CO [Compound 1245, (2R)-2,4-dihydroxy-N-{2-[(2-{[(3R)-3-hydroxypentanoyl]sulfanyl}ethyl)carbamoyl]ethyl}-3,3-dimethylbutanamide] | – | ≥ 10 | – | – | inhibition at 10 µM [1, 11]: ≥ 10%; inhibition at 10 µM [1, 10]: ≥ 30%
CC(O)CC(O)CC(=O)SCCNC(=O)CCNC(=O)[C@H](O)C(C)(C)CO (stereo partly shown) [Compound 400] | – | ≥ 10 | ≥ 10 | ≥ 30 | inhibition at 10 µM ([1]; Fibroblast, BCKD GM00649, Assay Condition C, read-out: Decreased ROS by at least 10%): ≥ 10%; inhibition at 10 µM [1, 7]: ≥ 30%; activation at 10 µM [3]: > 20%
CC(=O)OCC(C)(C)[C@@H](O)C(=O)NCCC(=O)NCCSC(=O)CC(=O)CCC(=O)O [Compound 140, 6-[(2-[3-[(2R)-4-(acetyloxy)-2-hydroxy-3,3-dimethylbutanamido]propanamido]ethyl)sulfanyl]-4,6-dioxohexanoic acid] | ≥ 10 | ≥ 10 | – | – | inhibition at 10 µM ([1]; Fibroblast, Leigh GM13411, Assay Condition C, read-out: Decreased ROS by at least 30%): ≥ 30%

— US20230107216A1, “PANTETHEINE DERIVATIVES AND USES THEREOF” (Comet Therapeutics, Inc., priority 2018, published 2023)
